Measurements reported in ChEMBL document CHEMBL1909046, “DrugMatrix in vitro pharmacology data”.

Assays:
[1] = biological target: T1, C-C chemokine receptor type 4 (Homo sapiens, UniProt P51679); format: cell membranes, Membrane; conditions: chem-1; also: in other assays of this panel Not Active means under 50% inhibition at 10 µM
T1 sequence (P51679 whole entry): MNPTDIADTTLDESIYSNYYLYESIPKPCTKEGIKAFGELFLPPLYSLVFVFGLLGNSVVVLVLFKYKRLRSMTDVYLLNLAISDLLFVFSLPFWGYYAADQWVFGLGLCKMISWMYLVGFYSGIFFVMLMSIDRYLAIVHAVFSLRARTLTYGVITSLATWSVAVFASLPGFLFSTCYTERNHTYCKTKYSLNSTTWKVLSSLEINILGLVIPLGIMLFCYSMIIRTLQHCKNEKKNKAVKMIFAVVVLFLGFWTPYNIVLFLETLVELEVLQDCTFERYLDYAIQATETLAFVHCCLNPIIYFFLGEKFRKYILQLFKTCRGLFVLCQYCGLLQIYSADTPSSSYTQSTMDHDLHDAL

[2] = DRUGMATRIX: Leukotriene, BLT (LTB4) radioligand binding (ligand: [3H]LTB4); format: cell membranes, Membrane; conditions: u-937; Not Active = under 50% inhibition at 10 µM
[3] = biological target: Beta-3 adrenergic receptor (Homo sapiens, UniProt P13945); experiment: DRUGMATRIX: Adrenergic beta3 radioligand binding (ligand: [125I] Cyanopindolol); format: cell membranes, HEK293, Membrane; conditions: hek293; Not Active = under 50% inhibition at 10 µM
Adenosine receptor A3 = biological target: T2, Adenosine receptor A3 (Homo sapiens, UniProt P0DMS8); format: cell membranes, CHO-K1, Membrane;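 also: radioligand binding assay with AB-MECA serving as the labeled ligand; in other assays of this panel Not Active means under 50% inhibition at 10 µM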
T2 sequence (P0DMS8 whole entry): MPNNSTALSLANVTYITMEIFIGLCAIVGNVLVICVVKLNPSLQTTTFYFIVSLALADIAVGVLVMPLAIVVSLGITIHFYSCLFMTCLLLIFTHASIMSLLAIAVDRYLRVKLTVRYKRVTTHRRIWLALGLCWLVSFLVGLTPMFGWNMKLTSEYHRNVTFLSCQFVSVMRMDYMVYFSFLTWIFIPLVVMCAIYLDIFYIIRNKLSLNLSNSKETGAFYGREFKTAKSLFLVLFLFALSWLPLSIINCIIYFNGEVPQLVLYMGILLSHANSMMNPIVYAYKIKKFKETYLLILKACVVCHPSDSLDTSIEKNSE

D(4) dopamine receptor = biological target: T3, D(4) dopamine receptor (Homo sapiens, UniProt P21917); experiment: DRUGMATRIX: Dopamine D4.2 radioligand binding (ligand: [3H] Spiperone); format: cell membranes, CHO-K1, Membrane; conditions: cho-k1; Not Active = under 50% inhibition at 10 µM
T3 sequence (P21917 whole entry): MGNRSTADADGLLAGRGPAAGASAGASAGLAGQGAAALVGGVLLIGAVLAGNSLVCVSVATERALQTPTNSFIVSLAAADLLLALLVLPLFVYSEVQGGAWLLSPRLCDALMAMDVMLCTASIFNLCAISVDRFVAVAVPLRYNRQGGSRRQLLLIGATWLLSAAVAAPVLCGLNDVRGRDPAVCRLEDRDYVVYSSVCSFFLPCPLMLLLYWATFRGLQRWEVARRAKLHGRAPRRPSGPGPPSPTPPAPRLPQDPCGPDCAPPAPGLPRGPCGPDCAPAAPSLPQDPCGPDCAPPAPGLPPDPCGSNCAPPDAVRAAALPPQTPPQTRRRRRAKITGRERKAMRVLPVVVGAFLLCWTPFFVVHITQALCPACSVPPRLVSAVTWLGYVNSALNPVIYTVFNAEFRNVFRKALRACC

Acetylcholinesterase = Acetylcholinesterase (Homo sapiens, UniProt P22303); experiment: DRUGMATRIX: Acetylcholinesterase enzyme inhibition (substrate: acetylthiocholine); format: cell-based, HEK293; conditions: hek293; Not Active = under 50% inhibition at 10 µM
[4] = biological target: T4, Vasoactive intestinal polypeptide receptor 1 (Homo sapiens, UniProt P32241); format: cell membranes, Membrane; conditions: ht-29; also: in other assays of this panel Not Active means under 50% inhibition at 10 µM
T4 sequence (P32241 whole entry): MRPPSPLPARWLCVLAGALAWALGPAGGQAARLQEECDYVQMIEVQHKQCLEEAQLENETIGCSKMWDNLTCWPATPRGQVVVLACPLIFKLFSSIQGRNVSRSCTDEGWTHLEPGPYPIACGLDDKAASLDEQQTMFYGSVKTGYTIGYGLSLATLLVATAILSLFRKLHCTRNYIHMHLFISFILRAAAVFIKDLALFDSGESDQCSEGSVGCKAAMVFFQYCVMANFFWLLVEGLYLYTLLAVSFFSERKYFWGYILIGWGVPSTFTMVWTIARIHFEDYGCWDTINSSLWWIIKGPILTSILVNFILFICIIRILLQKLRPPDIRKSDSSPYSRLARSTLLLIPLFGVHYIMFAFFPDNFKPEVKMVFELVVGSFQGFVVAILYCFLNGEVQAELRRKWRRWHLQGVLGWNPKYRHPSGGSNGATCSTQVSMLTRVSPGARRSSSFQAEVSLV

Cytochrome P450 2D6 = Cytochrome P450 2D6 (Homo sapiens, UniProt P10635); conditions: bti-tn-5b1-4; also: in other assays of this panel Not Active means under 50% inhibition at 10 µM
[5] = biological target: Delta-type opioid receptor (Homo sapiens, UniProt P41143); format: cell membranes, HEK293, Membrane; conditions: hek293; also: in other assays of this panel Not Active means under 50% inhibition at 10 µM
[6] = biological target: T5, Cholecystokinin receptor type A (Homo sapiens, UniProt P32238); format: cell membranes, Membrane; conditions: 1321-n1; also: in other assays of this panel Not Active means under 50% inhibition at 10 µM
T5 sequence (P32238 whole entry): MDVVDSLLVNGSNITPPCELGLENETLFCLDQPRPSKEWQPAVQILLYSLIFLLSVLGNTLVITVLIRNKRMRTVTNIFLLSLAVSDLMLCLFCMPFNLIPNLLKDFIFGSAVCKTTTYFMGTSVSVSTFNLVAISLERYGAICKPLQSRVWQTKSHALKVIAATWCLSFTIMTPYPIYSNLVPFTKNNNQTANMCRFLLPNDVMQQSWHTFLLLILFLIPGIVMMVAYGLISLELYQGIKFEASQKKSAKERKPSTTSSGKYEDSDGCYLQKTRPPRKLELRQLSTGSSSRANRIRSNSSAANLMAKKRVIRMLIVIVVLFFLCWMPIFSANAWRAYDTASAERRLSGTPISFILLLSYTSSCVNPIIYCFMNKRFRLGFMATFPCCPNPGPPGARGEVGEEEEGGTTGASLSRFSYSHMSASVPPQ

Estrogen receptor beta = Estrogen receptor beta (Homo sapiens, UniProt Q92731); conditions: sf9; also: in other assays of this panel Not Active means under 50% inhibition at 10 µM
[7] = DRUGMATRIX: Interleukin IL-1 radioligand binding (ligand: [125I] interleukin 1beta); format: cell membranes, Membrane; conditions: nih3t3; Not Active = under 50% inhibition at 10 µM
Mu-type opioid receptor = Mu-type opioid receptor (Homo sapiens, UniProt P35372); experiment: DRUGMATRIX: Opiate mu (OP3, MOP) radioligand binding (ligand: [3H] Diprenorphine); format: cell membranes, CHO-K1, Membrane; conditions: Not Active = under 50% inhibition at 10 µM
Chain of Mu-type opioid receptor (P35372 whole entry): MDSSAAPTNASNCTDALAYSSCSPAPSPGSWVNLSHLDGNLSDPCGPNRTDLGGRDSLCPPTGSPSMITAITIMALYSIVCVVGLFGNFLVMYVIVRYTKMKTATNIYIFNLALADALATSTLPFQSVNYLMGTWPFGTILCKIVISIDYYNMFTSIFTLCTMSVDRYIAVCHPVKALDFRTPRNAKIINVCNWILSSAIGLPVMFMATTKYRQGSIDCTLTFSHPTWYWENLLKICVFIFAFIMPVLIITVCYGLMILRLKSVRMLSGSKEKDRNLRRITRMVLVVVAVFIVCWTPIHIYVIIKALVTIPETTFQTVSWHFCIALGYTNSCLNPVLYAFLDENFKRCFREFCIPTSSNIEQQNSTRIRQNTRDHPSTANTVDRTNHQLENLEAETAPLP

Chain of Estrogen receptor beta (Q92731 whole entry): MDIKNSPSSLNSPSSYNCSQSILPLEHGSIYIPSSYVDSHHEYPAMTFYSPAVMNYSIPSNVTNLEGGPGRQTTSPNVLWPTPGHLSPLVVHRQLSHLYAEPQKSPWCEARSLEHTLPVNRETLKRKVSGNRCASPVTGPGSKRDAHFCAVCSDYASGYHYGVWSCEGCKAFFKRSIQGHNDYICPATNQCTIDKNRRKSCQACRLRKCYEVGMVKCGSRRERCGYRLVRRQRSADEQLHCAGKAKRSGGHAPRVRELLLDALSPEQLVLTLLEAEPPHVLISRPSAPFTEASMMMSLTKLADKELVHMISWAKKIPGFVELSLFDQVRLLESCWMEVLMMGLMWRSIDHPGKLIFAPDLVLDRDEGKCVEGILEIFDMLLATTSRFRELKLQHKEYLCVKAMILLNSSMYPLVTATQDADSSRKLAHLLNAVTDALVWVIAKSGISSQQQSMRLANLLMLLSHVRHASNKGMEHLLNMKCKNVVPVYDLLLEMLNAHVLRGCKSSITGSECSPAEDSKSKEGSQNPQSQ
Chain of Beta-3 adrenergic receptor (P13945 whole entry): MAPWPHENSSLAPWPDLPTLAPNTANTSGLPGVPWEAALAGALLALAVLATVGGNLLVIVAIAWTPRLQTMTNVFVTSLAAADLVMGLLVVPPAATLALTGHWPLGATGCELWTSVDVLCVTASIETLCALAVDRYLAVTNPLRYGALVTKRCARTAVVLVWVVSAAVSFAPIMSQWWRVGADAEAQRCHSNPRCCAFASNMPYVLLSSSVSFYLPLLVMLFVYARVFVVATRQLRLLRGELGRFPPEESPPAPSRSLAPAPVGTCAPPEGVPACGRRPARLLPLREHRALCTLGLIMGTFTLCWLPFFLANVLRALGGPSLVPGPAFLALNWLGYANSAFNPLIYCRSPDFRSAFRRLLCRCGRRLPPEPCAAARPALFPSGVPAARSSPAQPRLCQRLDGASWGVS
Chain of Delta-type opioid receptor (P41143 whole entry): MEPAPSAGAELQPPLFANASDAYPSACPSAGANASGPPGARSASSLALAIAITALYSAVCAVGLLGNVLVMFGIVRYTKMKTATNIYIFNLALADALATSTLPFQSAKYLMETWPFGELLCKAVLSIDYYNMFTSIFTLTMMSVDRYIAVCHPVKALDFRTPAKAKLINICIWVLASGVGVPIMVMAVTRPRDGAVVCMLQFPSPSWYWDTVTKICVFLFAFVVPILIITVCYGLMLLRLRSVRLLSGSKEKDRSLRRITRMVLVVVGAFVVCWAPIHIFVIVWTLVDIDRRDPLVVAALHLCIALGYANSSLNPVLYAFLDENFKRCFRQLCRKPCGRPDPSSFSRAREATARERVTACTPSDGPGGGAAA
Chain of Cytochrome P450 2D6 (P10635 whole entry): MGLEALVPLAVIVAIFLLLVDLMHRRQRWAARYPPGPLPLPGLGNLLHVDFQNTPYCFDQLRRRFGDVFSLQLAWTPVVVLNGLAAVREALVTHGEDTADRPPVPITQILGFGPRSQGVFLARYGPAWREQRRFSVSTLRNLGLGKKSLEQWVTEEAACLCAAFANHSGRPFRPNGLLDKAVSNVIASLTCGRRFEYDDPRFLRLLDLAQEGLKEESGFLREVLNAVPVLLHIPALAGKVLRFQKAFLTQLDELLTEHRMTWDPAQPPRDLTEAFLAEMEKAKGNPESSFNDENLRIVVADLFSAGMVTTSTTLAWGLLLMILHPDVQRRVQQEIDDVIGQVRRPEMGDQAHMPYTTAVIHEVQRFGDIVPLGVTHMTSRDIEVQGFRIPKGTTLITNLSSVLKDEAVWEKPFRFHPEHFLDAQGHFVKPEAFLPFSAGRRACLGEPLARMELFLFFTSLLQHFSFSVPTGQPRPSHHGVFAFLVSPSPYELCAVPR
Chain of Acetylcholinesterase (P22303 whole entry): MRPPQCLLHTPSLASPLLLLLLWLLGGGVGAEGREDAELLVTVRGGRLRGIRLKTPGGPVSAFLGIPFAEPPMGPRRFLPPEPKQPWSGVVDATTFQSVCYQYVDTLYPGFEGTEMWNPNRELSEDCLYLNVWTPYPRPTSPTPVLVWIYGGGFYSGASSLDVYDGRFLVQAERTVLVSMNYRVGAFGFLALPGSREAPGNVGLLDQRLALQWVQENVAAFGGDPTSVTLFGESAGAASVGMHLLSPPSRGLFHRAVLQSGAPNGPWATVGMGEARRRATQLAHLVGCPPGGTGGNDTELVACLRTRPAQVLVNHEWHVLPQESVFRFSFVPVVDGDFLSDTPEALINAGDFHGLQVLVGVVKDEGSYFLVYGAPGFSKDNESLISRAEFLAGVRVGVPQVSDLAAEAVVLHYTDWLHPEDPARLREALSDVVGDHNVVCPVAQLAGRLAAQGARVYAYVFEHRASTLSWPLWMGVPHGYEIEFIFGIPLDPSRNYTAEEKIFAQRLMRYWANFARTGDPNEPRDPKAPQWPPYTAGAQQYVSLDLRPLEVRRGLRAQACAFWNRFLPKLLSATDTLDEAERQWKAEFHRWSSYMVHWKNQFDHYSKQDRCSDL

SMILES | IC50 [1] | IC50 [2] | Ki [2] | IC50 [3] | IC50 (Adenosine receptor A3; cho-k1) | IC50 (D(4) dopamine receptor) | IC50 (Acetylcholinesterase) | IC50 [4] | IC50 (Cytochrome P450 2D6) | Ki (Cytochrome P450 2D6) | IC50 [5] | IC50 [6] | IC50 (Estrogen receptor beta) | IC50 [7] | Ki [7] | IC50 (Mu-type opioid receptor; cho-k1) | IC50 (Adenosine receptor A3; read-out: IC50) [nM] | Ki (Adenosine receptor A3; read-out: Ki) [nM] | Ki (Mu-type opioid receptor) [nM] | IC50 (Mu-type opioid receptor; read-out: IC50) [nM]
COc1ccc2cc(CC(=O)O)ccc2c1 | Not Active | Not Active | Not Active | Not Active | Not Active | Not Active | Not Active | Not Active | Not Active | Not Active | Not Active | Not Active | Not Active | Not Active | Not Active | Not Active | – | – | – | –
O=C1CN=C(c2ccccc2)c2cc([N+](=O)[O-])ccc2N1 [NITRAZEPAM] | Not Active | Not Active | Not Active | Not Active | Not Active | Not Active | Not Active | Not Active | Not Active | Not Active | Not Active | Not Active | Not Active | Not Active | Not Active | Not Active | – | – | – | –
CC(C)(S)[C@@H](N)C(=O)O [PENICILLAMINE] | Not Active | Not Active | Not Active | Not Active | Not Active | Not Active | Not Active | Not Active | Not Active | Not Active | Not Active | Not Active | Not Active | Not Active | Not Active | Not Active | – | – | – | –
CC(=O)CCCCn1c(=O)c2c(ncn2C)n(C)c1=O [PENTOXIFYLLINE] | Not Active | Not Active | Not Active | Not Active | Not Active | Not Active | Not Active | Not Active | Not Active | Not Active | Not Active | Not Active | Not Active | Not Active | Not Active | Not Active | – | – | – | –
Nc1nc(=O)[nH]cc1F [FLUCYTOSINE] | Not Active | Not Active | Not Active | Not Active | Not Active | Not Active | Not Active | Not Active | Not Active | Not Active | Not Active | Not Active | Not Active | Not Active | Not Active | Not Active | – | – | – | –
CCC1(c2ccccc2)C(=O)NCNC1=O [PRIMIDONE] | Not Active | Not Active | Not Active | Not Active | Not Active | Not Active | Not Active | Not Active | Not Active | Not Active | Not Active | Not Active | Not Active | Not Active | Not Active | Not Active | – | – | – | –
CC1(C)[C@@H](O[C@H]2O[C@H](C(=O)O)[C@@H](O)[C@H](O)[C@H]2O[C@@H]2O[C@H](C(=O)O)[C@@H](O)[C@H](O)[C@H]2O)CC[C@]2(C)[C@H]3C(=O)C=C4[C@@H]5C[C@@](C)(C(=O)O)CC[C@]5(C)CC[C@@]4(C)[C@]3(C)CC[C@@H]12 [GLYCYRRHIZIN] | Not Active | Not Active | Not Active | Not Active | Not Active | Not Active | Not Active | Not Active | Not Active | Not Active | Not Active | Not Active | Not Active | Not Active | Not Active | Not Active | – | – | – | –
Cn1cnc([N+](=O)[O-])c1Sc1ncnc2nc[nH]c12 [AZATHIOPRINE] | Not Active | Not Active | Not Active | Not Active | Not Active | Not Active | Not Active | Not Active | Not Active | Not Active | Not Active | Not Active | Not Active | Not Active | Not Active | Not Active | – | – | – | –
Oc1c(Cl)cc(Cl)cc1Sc1cc(Cl)cc(Cl)c1O [BITHIONOL] | Not Active | Not Active | Not Active | Not Active | – | Not Active | Not Active | Not Active | Not Active | Not Active | Not Active | Not Active | Not Active | Not Active | Not Active | – | 829 | 468 | 2240 | 5510
